Measured values taken from patent publication US20250144101A1, “LYSOSOMAL DYSFUNCTION IN NEUROLOGICAL AND PSYCHIATRIC DISORDERS” (The Johns Hopkins University, priority 2022, published 2025).

What was measured:
α-galactosidase A = conditions: cells from patients with Fabry disease; cited from earlier work
PLA2G4A = assay: RNA-sequencing in iPS cell-derived neurons: PLA2G4A expression; format: cell-based; conditions: WT and CLN3 KO human iPS cell-derived neurons, treated 2 weeks vs mock, FIG. 5A
From the text: (§1) RNA-sequencing in iPS cell-derived neurons: Cells were differentiated from iPS cells and treated either with 0.1% DMSO or Compound A for 2 weeks. RNAs were extracted using RNeasy Mini Kit (QIAGEN). The libraries for RNA-sequencing were constructed by SMART-Seq v4 Ultra Low Input RNA Kit (Takara bio).

[1] = test system: lymphoblasts from BD patients with a Cln3 mutation; assay: Cellular autofluorescence (AF) in BD/JNCL patient lymphoblasts by flow cytometry; format: cell-based, human
Description: Autofluorescence (AF): AF levels in human blood cells were measured in 30,000 cells using flow cytometry at FL-1 with the BD FACSCalibur™ (BD Biosciences) (Excitation; 488 nm, Emission; 530±15 nm) (for FIGS. 1A-1C). AF levels in lymphoblasts were measured in 20,000 cells using flow cytometry with Attune Flow Cytometer (Thermo Fisher Scientific) (Excitation; 488 nm, Emission; 530 nm) (for FIGS. 2A and 2B).

Cln3−/− mice [2] = assay: LAMP1 staining of peripheral white blood cells, BD animal model; format: in vivo; conditions: CLN3 knockout (KO) mice, FIG. 4C
Description: (§2) LAMP1 staining: Lymphoblasts were fixed with methanol and incubated overnight at 4° C. with anti-human LAMP1 antibody (1:400, Cell Signaling Technology) followed by secondary antibody (Alexa Fluor 488 donkey anti-rabbit IgG, 1:1000, Thermo Fisher Scientific). Neuronal cells differentiated from iPS cells were fixed with 4% paraformaldehyde (PFA) and incubated overnight at 4° C. with anti-human LAMP1 antibody (1:400, Cell Signaling Technology) followed by a secondary antibody (Alexa Fluor 488 donkey anti-rabbit IgG, 1:1000, Thermo Fisher Scientific). White blood cells from mice were fixed with methanol and incubated overnight at 4° C. with LAMP1 antibody (1:1000, Abcam) followed by a secondary antibody (Alexa Fluor 488 donkey anti-rabbit IgG, 1:1000, Thermo Fisher Scientific). KEYENCE BZ-X710 and BX-Z analyzer software were used for imaging quantification.
Isolation of white blood cells from peripheral blood of mice: 20 μL of blood of mice was lysed with ACK lysing buffer (Lonza) for 1 min. After washing, cells were resuspended with RPMI.

Cln3−/− mice [3] = assay: Novel object recognition test, BD animal model; format: in vivo; conditions: CLN3 knockout (KO) mice, FIG. 4D
Description: Novel Object Recognition Test (NORT): The test was carried out according to the previously validated method (Hatayama et al., Neuroscience 265 (2014) 217-25). All mice were habituated for 1 hour to the NORT arena one day before the test day. On the day of testing, the mice were given two 5-min trials (T1 with two identical objects and T2 with a familiar object from T1 and a novel object), separated by 1-hour interval. The discrimination index (DI) ((time spent exploring the novel object−time spent exploring the familiar object)/total exploration time) was calculated for T2 trials.

PLA2G7 = assay: RNA-sequencing in iPS cell-derived neurons: PLA2G7 expression; format: cell-based; conditions: WT and CLN3 KO human iPS cell-derived neurons, treated 2 weeks vs mock, FIG. 5B
From the text: as §1

[4] = test system: lymphoblasts from BD patients with a Cln3 mutation; assay: LAMP1 staining of BD/JNCL patient lymphoblasts; format: cell-based, human
Description: as §2

[5] = test system: animal model of GM1 gangliosidosis; conditions: cited from earlier work
[6] = test system: Neuronal cells differentiated from Cln3 mutant iPSCs; assay: LAMP1 staining of neuronal cells differentiated from Cln3 mutant iPSCs; format: cell-based, human; conditions: 0.4-10 μM, n=2-3, FIG. 2D
Description: as §2

OC[C@H]1NC[C@H](O)[C@@H](O)[C@H]1O [1-deoxygalactonojirimycin (DGJ), 1-deoxygalactonojirimycin]
residual α-galactosidase A activity (α-galactosidase A): enhance residual α-galactosidase A activity

CC(C)CN1CCCn2c1nc1ccc(NCCN(C)C)cc1c2=O [Compound A, 8-{[2-(dimethylamino)ethyl]amino}-1-(2-methylpropyl)-1,2,3,4-tetrahydro-6H-pyrimido[2,1-b]quinazolin-6-one]
expression of PLA2G4A (PLA2G4A): significantly influenced the expression of PLA2 genes | elevated autofluorescence (AF) in Batten disease (BD) lymphoblasts ([1]; FIG. 4A): amelioration of elevated autofluorescence (AF) | elevated LAMP1 signal in peripheral white blood cells of BD mice (Cln3−/− mice [2]): amelioration of elevated LAMP1 signal | cognitive deficits (novel object recognition test) of BD mice (Cln3−/− mice [3]): Amelioration of cognitive deficits | expression of PLA2G7 (PLA2G7): significantly influenced the expression of PLA2 genes | elevated LAMP1 signal in Batten disease (BD) lymphoblasts ([4]; FIG. 4B): amelioration of elevated LAMP1 signal

CCCCCCCCNC1C=C(CO)C(O)C(O)C1O (stereo not drawn) [N-octyl 4-epi-β-valienamine (NOEV), N-octyl 4-epi-β-valienamine]
residual activity in the brain [5]: increased residual activity in the brain

CC(C)c1nc(N(C)S(C)(=O)=O)nc(-c2ccc(F)cc2)c1/C=C/[C@@H](O)C[C@@H](O)CC(=O)O [rosuvastatin]
elevated autofluorescence (AF) of JNCL patient lymphoblasts ([1]; 10 μM, FIG. 2B): decreased it | anti-LAMP1 staining of neuronal cells differentiated from Cln3 mutant iPSCs [6]: dose-dependently decreased it | anti-LAMP1 staining of JNCL patient lymphoblasts ([4]; 10 μM, n=3, FIG. 2C): decreased it | lysosomal deficits found in BD lymphoblasts (LAMP1 expression and AF levels) ([4]; cites FIGS. 2C, 2D): ameliorate the lysosomal deficits
